Source: PMC6014687 (Journal of Medicinal Chemistry, 2016)
Values joined by “and” are separate entries in the source; they are usually repeats but may differ in a detail not shown here. Equal entries are not always repeated. Where two headings read alike, the source gives them in different places.

Experiments:
SK-OV-3 cells [1] = experiment: cells; settings: Homo sapiens, SK-OV-3, 96 h
[2] = test system: SK-OV-3 human ovarian carcinoma xenograft; settings: female, NCr athymic, mouse, in vivo
in vivo [3] = settings: female, BALB/c, mouse, 5 mg/kg; for AUC(0-inf): AUCinf; for AUC(0-t): AUClast
Experimental: Experimental work was done in accordance with Home Office regulations under the
UK National Cancer Research CR I Guidelines with local Ethical Committee approval.9
Female BALB/c and Ncr-Foxn1nu mice were obtained from Charles River (Margate, UK).
Animals were adapted to laborator y conditions for at least 1 week prior to dosing and were
allowed food and water ad libitum. Compounds were administered iv or po (0.1 m L/10 g) in
hydrox yprop yl beta c ycl odextrin in 50 mM sodium citrate buff er (Ncr-Foxn1nu PK). Blood
spotted onto Whatman FTA-DMPK B cards (VWR) together with a calibration curve and
qualit y controls spiked in control blood. Cards were allowed to dr y at room temperature for at
least 2 h. 6 mm discs were punched from the cards and extracted with 200 µ L methanol
containing 500 nM olo moucine as an internal standard. Following centrifugation, extracts
were anal yzed b y multiple reaction monitoring of precursor and product ions by LC-ES I-
% formic acid and methanol on a Phenomenex (Macclesfi eld, UK) Kinet exTM C18, 5 cm x
2.6 µ m, 2.1 mm i.d UHP LC column. Pharmac okinetic parameters were derived from non -

in vivo [4] = settings: female, mouse, po, 20 mg/kg
physchem = settings: pH 7.4
SK-OV-3 cells [5] = test system: SK-OV-3 cells
recombinant human pirin = recombinant human pirin (Homo sapiens, UniProt O00625)
WM266.4 cells = settings: WM266.4, 30 h
[6] = read-out: SK-OV-3 pGI50±SEM (converted)

Sequence of recombinant human pirin (O00625 whole entry): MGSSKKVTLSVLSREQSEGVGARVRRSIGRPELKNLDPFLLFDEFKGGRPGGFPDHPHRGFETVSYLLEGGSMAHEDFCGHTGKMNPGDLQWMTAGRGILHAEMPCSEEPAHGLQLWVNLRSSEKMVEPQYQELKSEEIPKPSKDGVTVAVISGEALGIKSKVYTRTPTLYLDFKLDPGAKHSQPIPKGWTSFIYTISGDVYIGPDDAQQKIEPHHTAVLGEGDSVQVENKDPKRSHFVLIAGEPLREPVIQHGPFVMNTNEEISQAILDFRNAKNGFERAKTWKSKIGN

`COCCOc1ccc2cc(C(=O)Nc3cc(NC(=O)c4ccc5c(c4)OCCO5)ccc3C)ccc2n1` [Compound 21, N-(5-(2,3-Dihydrobenzo[b][1,4]dioxine-6-carboxamido)-2-methylphenyl)-2-(2-methoxyethoxy)quinoline-6-carboxamide] showed a GI50 (SK-OV-3 cells [1]; read-out: SK-OV-3 GI50) of 4.3 nM and a GI50 (SK-OV-3 cells [1]; [6]) of 4.27 nM.

`Cc1ccc(NC(=O)c2ccc3c(c2)OCCO3)cc1NC(=O)c1ccc2nc(OCCN3CCCCC3)ccc2c1` [Compound 25, N-(5-(2,3-Dihydrobenzo[b][1,4]dioxine-6-carboxamido)-2-methylphenyl)-2-(2-(piperidin-1-yl)ethoxy)quinoline-6-carboxamide] gave a GI50 (SK-OV-3 cells [1]; read-out: SK-OV-3 GI50) of 1.1 nM.

With `Cc1ccc(NC(=O)c2ccc3c(c2)OCCO3)cc1NC(=O)c1ccc2ncccc2c1` [Compound 15, N-(5-(2,3-Dihydrobenzo[b][1,4]dioxine-6-carboxamido)-2-methylphenyl)quinoline-6-carboxamide] the GI50 (SK-OV-3 cells [1]; read-out: SK-OV-3 GI50) was 8.6 nM and the GI50 (SK-OV-3 cells [1]; [6]) was 2.51 nM.

For `Cc1ccc2cc(C(=O)Nc3cc(NC(=O)c4ccc5c(c4)OCCO5)c(C)cc3C)ccc2n1` [Compound 12, N-(5-(2,3-Dihydrobenzo[b][1,4]dioxine-6-carboxamido)-2,4-dimethylphenyl)-2-methylquinoline-6-carboxamide], the GI50 (SK-OV-3 cells [1]; read-out: SK-OV-3 GI50) was > 1000 nM and the GI50 (SK-OV-3 cells [1]; [6]) was > 1000 nM.

With `Cc1ccc2cc(C(=O)Nc3c(C)ccc(NC(=O)c4ccc5c(c4)OCCO5)c3C)ccc2n1` [Compound 11, N-(3-(2,3-Dihydrobenzo[b][1,4]dioxine-6-carboxamido)-2,6-dimethylphenyl)-2-methylquinoline-6-carboxamide] the GI50 (SK-OV-3 cells [1]; read-out: SK-OV-3 GI50) was > 1000 nM and the GI50 (SK-OV-3 cells [1]; [6]) was > 1000 nM.

For `Cc1ccc2cc(C(=O)Nc3cc(NC(=O)c4cccc5c4OCCO5)ccc3C)ccc2n1` [Compound 6, N-(5-(2,3-Dihydrobenzo[b][1,4]dioxine-5-carboxamido)-2-methylphenyl)-2-methylquinoline-6-carboxamide], the GI50 (SK-OV-3 cells [1]; read-out: SK-OV-3 GI50) was > 1000 nM and the GI50 (SK-OV-3 cells [1]; [6]) was > 1000 nM.

Work on `Cc1ccc(NC(=O)c2ccc3c(c2)OCCO3)cc1NC(=O)c1ccc2nc(OCCN)ccc2c1` [Compound 29, 2-(2-Aminoethoxy)-N-(5-(2,3-dihydrobenzo[b][1,4]dioxine-6-carboxamido)-2-methylphenyl)quinoline-6-carboxamide] yielded a GI50 (SK-OV-3 cells [1]; read-out: SK-OV-3 GI50) of 3.1 nM and a GI50 (SK-OV-3 cells [1]; [6]) of 3.09 nM.

With `Cc1ccc2cc(C(=O)Nc3cc(NS(=O)(=O)c4ccc5c(c4)OCCO5)ccc3C)ccc2n1` [Compound 14, N-(5-(2,3-Dihydrobenzo[b][1,4]dioxine-6-sulfonamido)-2-methylphenyl)-2-methylquinoline-6-carboxamide] the GI50 (SK-OV-3 cells [1]; read-out: SK-OV-3 GI50) was > 1000 nM and the GI50 (SK-OV-3 cells [1]; [6]) was > 1000 nM.

`Cc1ccc(NC(=O)c2ccc3c(c2)OCCO3)cc1NC(=O)c1ccc2nc(OCCCN3CCOCC3)ccc2c1` [Compound 23, N-(5-(2,3-Dihydrobenzo[b][1,4]dioxine-6-carboxamido)-2-methylphenyl)-2-(3-morpholinopropoxy)quinoline-6-carboxamide] showed a GI50 (SK-OV-3 cells [1]; read-out: SK-OV-3 GI50) of 7.4 nM and a GI50 (SK-OV-3 cells [1]; [6]) of 7.41 nM.

In the case of `Cc1ccc(NC(=O)c2ccc3c(c2)OCCO3)cc1NC(=O)c1ccc2nc(OCCCN(C)C)ccc2c1` [Compound 22, N-(5-(2,3-Dihydrobenzo[b][1,4]dioxine-6-carboxamido)-2-methylphenyl)-2-(3-(dimethylamino)propoxy)quinoline-6-carboxamide], the GI50 (SK-OV-3 cells [1]; read-out: SK-OV-3 GI50) is reported as 1.1 nM and the GI50 (SK-OV-3 cells [1]; [6]) is reported as 1.15 nM.

`CCC(=O)NCCOc1ccc2cc(C(=O)Nc3cc(NC(=O)c4ccc5c(c4)OCCO5)ccc3C)ccc2n1` [Compound 27] gave a GI50 (SK-OV-3 cells [1]; read-out: SK-OV-3 GI50) of 9.1 nM and a GI50 (SK-OV-3 cells [1]; [6]) of 9.12 nM.

For `Cc1ccc(NC(=O)c2ccc3c(c2)OCCO3)cc1NC(=O)c1ccc2nc(OCCN3CCCC3)ccc2c1` [Compound 26, N-(5-(2,3-Dihydrobenzo[b][1,4]dioxine-6-carboxamido)-2-methylphenyl)-2-(2-(pyrrolidin-1-yl)ethoxy)quinoline-6-carboxamide], the total tumor concentrations [2] was ≤ 940 nM, the half-life at 24 h (in vivo [3]) was 5.3 h and the AUC(0-inf) (in vivo [3]; iv) was 14.8 µM·h. The AUC(0-t) (in vivo [3]; iv) was 14.1 µM·h, the clearance (in vivo [3]; iv, Cl) was 9.8 mL/min/kg and the Cmax (in vivo [3]; iv) was 3830 nM. For the same molecule, the Vd (in vivo [3]; iv, Vss) was 3.26 L/kg, the Vd at 24 h (in vivo [3]; iv, Vss) was 4.2 L/kg and the Vd (in vivo [3]; iv, Vz) was 5.78 L/kg. The clearance at 24 h (in vivo [3]; iv, blood Cl) was 9.2 mL/min/kg, the AUC(0-t) at 24 h (in vivo [3]; po, AUC0–24h PO) was 5.8 µM·h and the AUC(0-inf) (in vivo [3]; po) was 6.09 µM·h. For the same molecule, the AUC(0-t) (in vivo [3]; po) was 5.02 µM·h, the Cmax (in vivo [3]; po) was 828 nM and the AUC(0-inf) (in vivo [4]; Ncr-Foxn1nu (athymic), AUCinf) was 1.58 µM·h. It also gave an AUC(0-t) (in vivo [4]; Ncr-Foxn1nu (athymic), AUClast) of 1.53 µM·h, a Cmax (in vivo [4]; Ncr-Foxn1nu (athymic), Cmax) of 439 nM and an AUC(0-t) at 24 h (in vivo [4]; athymic (Ncr-Foxn1nu), AUC0–24h PO) of 1.9 µM·h. It also gave a chromatographic logD (physchem) of 2.1.

In the case of `Cc1ccc(NC(=O)c2cccc3c2OCCO3)cc1NC(=O)c1ccc2nc(OCCN3CCCC3)ccc2c1` [Compound 28, N-(5-(2,3-Dihydrobenzo[b][1,4]dioxine-5-carboxamido)-2-methylphenyl)-2-(2-(pyrrolidin-1-yl)ethoxy)quinoline-6-carboxamide], the “SK-OV-3 pGI50±SEM” value (SK-OV-3 cells [5]) is reported as <6, the “AS (apparent stoichiometry)” value (recombinant human pirin) is reported as 1.18 and 1.11 and 1.80 and the antimigratory activity (WM266.4 cells) is reported as “no measurable antimigratory activity”. For the same molecule, the GI50 (SK-OV-3 cells [1]; read-out: SK-OV-3 GI50) was > 1000 nM and the GI50 (SK-OV-3 cells [1]; [6]) was > 1000 nM.
